Results as given in patent US12150998B2, “Bicyclic peptide ligands specific for P-selectin” (BicycleTx Limited, priority 2021, dated 2024).
Where two headings read alike, the source gives them in different places. Starred links: 1 amine or outer side, 2 acyl side, 3 side chain; linkers in the order of their positions; H or OH if unused. Positions of bridges follow the written chain, without caps; N, C: chain ends. Residues, ends and D or L forms follow the SMILES beside them. Chains are numbered I, II in the order given. X2 = O=C(CCCC(=O)NCCOCCOCCOCCOCCOCCOCCOCCOCCOCCOCCOCCOCCOCCOCCOCCOCCOCCOCCOCCOCCOCCOCCOCCn1cc(CCC(=O)[*:2])nn1)NCCOCCOCCOCCOCCOCCOCCOCCOCCOCCOCCOCCOCCOCCOCCOCCOCCOCCOCCOCCOCCOCCOCCOCCn1cc(CCC(=O)[*:1])nn1; TATA = O=C(CC[*:1])N1CN(C(=O)CC[*:2])CN(C(=O)CC[*:3])C1

Target: T1, human P-Selectin protein (Homo sapiens, UniProt P16109)
T1 sequence (P16109 42-830): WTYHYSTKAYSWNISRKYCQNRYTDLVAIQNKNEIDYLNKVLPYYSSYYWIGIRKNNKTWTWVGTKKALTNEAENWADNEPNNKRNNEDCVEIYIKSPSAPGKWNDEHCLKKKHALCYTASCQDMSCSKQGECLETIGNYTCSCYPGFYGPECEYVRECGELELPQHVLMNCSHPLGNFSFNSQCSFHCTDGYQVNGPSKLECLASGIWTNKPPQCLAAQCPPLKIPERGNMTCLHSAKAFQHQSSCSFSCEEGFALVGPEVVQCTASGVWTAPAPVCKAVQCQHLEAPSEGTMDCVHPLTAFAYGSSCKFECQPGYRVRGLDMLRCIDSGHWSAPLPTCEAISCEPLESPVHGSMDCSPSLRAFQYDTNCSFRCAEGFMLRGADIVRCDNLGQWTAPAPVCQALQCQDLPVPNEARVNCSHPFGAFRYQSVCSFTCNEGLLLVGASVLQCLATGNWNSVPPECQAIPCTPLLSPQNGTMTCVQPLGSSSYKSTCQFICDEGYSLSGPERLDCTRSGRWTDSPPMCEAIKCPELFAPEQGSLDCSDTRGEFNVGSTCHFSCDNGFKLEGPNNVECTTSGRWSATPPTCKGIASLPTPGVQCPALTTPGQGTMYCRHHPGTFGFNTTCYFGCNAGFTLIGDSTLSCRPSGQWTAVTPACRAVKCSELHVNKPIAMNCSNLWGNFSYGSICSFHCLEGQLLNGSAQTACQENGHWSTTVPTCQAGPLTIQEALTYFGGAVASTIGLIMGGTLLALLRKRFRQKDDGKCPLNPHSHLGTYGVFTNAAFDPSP
Assay: SPR binding assay (Biacore)
Details: recombinant biotinylated human P-Selectin, 25° C.
Protocol: Biacore experiments were performed to determine ka (M−1s−1), kd (s−1), KD (nM) values of monomeric peptides binding to human Selectin proteins. Recombinant biotinylated human P-Selectin protein was used. For analysis of binding, either a Biacore 3000 or 5200 instrument was used with a CMS sensor chip (GE Healthcare). For sensor chip surface preparation, streptavidin was immobilized on the chip using standard amine-coupling chemistry at 25° C. with HBS-N (10 mM HEPES, 0.15 M NaCl, pH 7.4) as the running buffer. The carboxymethyl dextran surface was activated with a 12 min injection of a 1:1 ratio of 0.4 M 1-ethyl-3-(3-dim ethyl aminopropyl) carbodiimide hydrochloride (EDC)/0.1 M N-hydroxy succinimide (NHS) at a flow rate of 10 μl/min. For capture of streptavidin, protein was diluted to 0.2 mg/ml in 10 mM sodium acetate (pH 4.5) and captured by injecting 70 μl onto the activated chip surface. Residual activated groups were blocked with a 7 min injection of 1 M ethanolamine (pH 8.5). Biotinylated protein stock was diluted 1:100 in HBS-N and captured on one flow cell at 5 μl/min to a level of 1000-1500 RU. Buffer was changed to PBS/0.05% Tween 20 and a dilution series of the peptides was prepared in this buffer with a final DMSO concentration of 0.5%. The top concentration of the analyte varied from 200 nM to 50 μM; depending on predicted affinity of the interaction. In all cases a titration was performed with either seven 2-fold dilutions or five 3-fold dilutions. The SPR analysis was run at 25° C. with a flow rate of 50-80 μl/min with 60 seconds association and a suitable disassociation period (100-900 seconds). Data were corrected for DMSO excluded volume effects. All data were double-referenced for blank injections and reference surface using standard processing procedures and data processing and kinetic fitting were performed using Scrubber software, version 2.0c (BioLogic Software). Data were fitted using mass transport model allowing for mass transport effects where appropriate.

Row | Kd (read-out: Affinity KD determined by SPR) [nM] | Compound | Kd (Affinity KD determined by SPR) [nM]
1 |  | CSCC[C@@H]1NC(=O)[C@H](Cc2ccc(O)cc2)NC(=O)[C@@H](NC(=O)[C@H](C)NC(C)=O)CSCCC(=O)N2CN3CN(C2)C(=O)CCSC[C@H](NC(=O)[C@H](Cc2c[nH]c4ccccc24)NC(=O)[C@H](CCC(=O)O)NC1=O)C(=O)N[C@@H](CC(=O)O)C(=O)N[C@@H](C(C)C)C(=O)N[C@@H]([C@@H](C)O)C(=O)N[C@@H](CC(=O)O)C(=O)N[C@@H](Cc1ccc(O)cc1)C(=O)NCC(=O)N[C@H](C(=O)N[C@@H](CCCCNC(=O)CCc1cn(CCOCCOCCOCCOCCOCCOCCOCCOCCOCCOCCOCCOCCOCCOCCOCCOCCOCCOCCOCCOCCOCCOCCOCCNC(=O)CCCC(=O)NCCOCCOCCOCCOCCOCCOCCOCCOCCOCCOCCOCCOCCOCCOCCOCCOCCOCCOCCOCCOCCOCCOCCOCCn2cc(CCC(=O)NCCCC[C@H](NC(=O)[C@@H]4CSCCC(=O)N5CN6CN(C5)C(=O)CCSC[C@H](NC(=O)[C@H](Cc5c[nH]c7ccccc57)NC(=O)[C@H](CCC(=O)O)NC(=O)[C@H](CCSC)NC(=O)[C@H](Cc5ccc(O)cc5)NC(=O)[C@@H](NC(=O)[C@H](C)NC(C)=O)CSCCC6=O)C(=O)N[C@@H](CC(=O)O)C(=O)N[C@@H](C(C)C)C(=O)N[C@@H]([C@@H](C)O)C(=O)N[C@@H](CC(=O)O)C(=O)N[C@@H](Cc5ccc(O)cc5)C(=O)NCC(=O)N4)C(N)=O)nn2)nn1)C(N)=O)CSCCC3=O [BCY5457] (I: Ac-ACYMEWCDVTDYGCK-NH2 / II: Ac-ACYMEWCDVTDYGCK-NH2; linker I:2-I:7-I:14, II:2-II:7-II:14 via TATA; linker I:15-II:15 via X2) | 969
2 | 400 | CSCC[C@@H]1NC(=O)[C@H](Cc2ccc(O)cc2)NC(=O)[C@@H](NC(=O)[C@H](C)NC(=O)CCc2cn(CCOCCOCCOCCOCCOCCOCCOCCOCCOCCOCCNC(=O)CCOCCN(CCOCCC(=O)NCCOCCOCCOCCOCCOCCOCCOCCOCCOCCOCCn3cc(CCC(=O)N[C@@H](C)C(=O)N[C@H]4CSCCC(=O)N5CN6CN(C5)C(=O)CCSC[C@H](NC(=O)[C@H](Cc5c[nH]c7ccccc57)NC(=O)[C@H](CCC(=O)O)NC(=O)[C@H](CCSC)NC(=O)[C@H](Cc5ccc(O)cc5)NC4=O)C(=O)N[C@@H](CC(=O)O)C(=O)N[C@@H](C(C)C)C(=O)N[C@@H]([C@@H](C)O)C(=O)N[C@@H](CC(=O)O)C(=O)N[C@@H](Cc4ccc(O)cc4)C(=O)NCC(=O)N[C@H](C(=O)N[C@@H](C)C(N)=O)CSCCC6=O)nn3)CCOCCC(=O)NCCOCCOCCOCCOCCOCCOCCOCCOCCOCCOCCn3cc(CCC(=O)N[C@@H](C)C(=O)N[C@H]4CSCCC(=O)N5CN6CN(C5)C(=O)CCSC[C@H](NC(=O)[C@H](Cc5c[nH]c7ccccc57)NC(=O)[C@H](CCC(=O)O)NC(=O)[C@H](CCSC)NC(=O)[C@H](Cc5ccc(O)cc5)NC4=O)C(=O)N[C@@H](CC(=O)O)C(=O)N[C@@H](C(C)C)C(=O)N[C@@H]([C@@H](C)O)C(=O)N[C@@H](CC(=O)O)C(=O)N[C@@H](Cc4ccc(O)cc4)C(=O)NCC(=O)N[C@H](C(=O)N[C@@H](C)C(N)=O)CSCCC6=O)nn3)nn2)CSCCC(=O)N2CN3CN(C2)C(=O)CCSC[C@H](NC(=O)[C@H](Cc2c[nH]c4ccccc24)NC(=O)[C@H](CCC(=O)O)NC1=O)C(=O)N[C@@H](CC(=O)O)C(=O)N[C@@H](C(C)C)C(=O)N[C@@H]([C@@H](C)O)C(=O)N[C@@H](CC(=O)O)C(=O)N[C@@H](Cc1ccc(O)cc1)C(=O)NCC(=O)N[C@H](C(=O)N[C@@H](C)C(N)=O)CSCCC3=O [BCY5458] | 
3 |  | CSCC[C@@H]1NC(=O)[C@H](Cc2ccc(O)cc2)NC(=O)[C@@H](NC(=O)[C@H](C)NC(C)=O)CSCCC(=O)N2CN3CN(C2)C(=O)CCSC[C@H](NC(=O)[C@H](Cc2c[nH]c4ccccc24)NC(=O)[C@H](CCC(=O)O)NC1=O)C(=O)N[C@@H](CC(=O)O)C(=O)N[C@@H](C(C)C)C(=O)N[C@@H]([C@@H](C)O)C(=O)N[C@@H](CC(=O)O)C(=O)N[C@@H](Cc1ccc(O)cc1)C(=O)NCC(=O)N[C@H](C(=O)N[C@@H](CCCCNC(=O)CCc1cn(CCOCCOCCOCCOCCOCCOCCOCCOCCOCCOCCNC(=O)CCOCC(COCCC(=O)NCCOCCOCCOCCOCCOCCOCCOCCOCCOCCOCCn2cc(CCC(=O)NCCCC[C@H](NC(=O)[C@@H]4CSCCC(=O)N5CN6CN(C5)C(=O)CCSC[C@H](NC(=O)[C@H](Cc5c[nH]c7ccccc57)NC(=O)[C@H](CCC(=O)O)NC(=O)[C@H](CCSC)NC(=O)[C@H](Cc5ccc(O)cc5)NC(=O)[C@@H](NC(=O)[C@H](C)NC(C)=O)CSCCC6=O)C(=O)N[C@@H](CC(=O)O)C(=O)N[C@@H](C(C)C)C(=O)N[C@@H]([C@@H](C)O)C(=O)N[C@@H](CC(=O)O)C(=O)N[C@@H](Cc5ccc(O)cc5)C(=O)NCC(=O)N4)C(N)=O)nn2)(COCCC(=O)NCCOCCOCCOCCOCCOCCOCCOCCOCCOCCOCCn2cc(CCC(=O)NCCCC[C@H](NC(=O)[C@@H]4CSCCC(=O)N5CN6CN(C5)C(=O)CCSC[C@H](NC(=O)[C@H](Cc5c[nH]c7ccccc57)NC(=O)[C@H](CCC(=O)O)NC(=O)[C@H](CCSC)NC(=O)[C@H](Cc5ccc(O)cc5)NC(=O)[C@@H](NC(=O)[C@H](C)NC(C)=O)CSCCC6=O)C(=O)N[C@@H](CC(=O)O)C(=O)N[C@@H](C(C)C)C(=O)N[C@@H]([C@@H](C)O)C(=O)N[C@@H](CC(=O)O)C(=O)N[C@@H](Cc5ccc(O)cc5)C(=O)NCC(=O)N4)C(N)=O)nn2)COCCC(=O)NCCOCCOCCOCCOCCOCCOCCOCCOCCOCCOCCn2cc(CCC(=O)NCCCC[C@H](NC(=O)[C@@H]4CSCCC(=O)N5CN6CN(C5)C(=O)CCSC[C@H](NC(=O)[C@H](Cc5c[nH]c7ccccc57)NC(=O)[C@H](CCC(=O)O)NC(=O)[C@H](CCSC)NC(=O)[C@H](Cc5ccc(O)cc5)NC(=O)[C@@H](NC(=O)[C@H](C)NC(C)=O)CSCCC6=O)C(=O)N[C@@H](CC(=O)O)C(=O)N[C@@H](C(C)C)C(=O)N[C@@H]([C@@H](C)O)C(=O)N[C@@H](CC(=O)O)C(=O)N[C@@H](Cc5ccc(O)cc5)C(=O)NCC(=O)N4)C(N)=O)nn2)nn1)C(N)=O)CSCCC3=O [BCY5464] | 37.3
